The source of these data is patent US20190105367A1, “ANTIMICROBIAL 4-OXOQUINOLIZINES” (Emergent Product Development Gaithersburg Inc., priority 2011, published 2019).

Experiment [1] deals with B. thailandensis. In kind it is cell-based, Burkholderia thailandensis.
Experiment [2] has as its system K. pneumoniae ATCC 33495. The experiment can be described thus: MIC on K. pneumoniae (Example 5). In kind it is cell-based, Klebsiella pneumoniae. The settings on record: sensitive strain. The method, then: (§1) MIC Values for all compounds were measured against a selection of bacterial strains. The MICs of 4-oxoquinolizines against a selection of Gram-negative and Gram-positive bacterial strains are shown in Table 13 in comparison with known antibiotics.

Experiment [3] has as its system B. thailandensis E264. The experiment can be described thus: microbe, parasite or virus in culture. In kind it is cell-based, Burkholderia thailandensis.
The test system of experiment [4] is E. coli ATCC 25922. Kind of experiment: MIC, selected panel of bacterial strains (Example 5). In kind it is cell-based, Escherichia coli.
The test system of experiment [5] is P. aeruginosa ATCC 27853. The experiment is described as above. In kind it is cell-based, Pseudomonas aeruginosa.
The subject of experiment [6] is A. baumannii ATCC 19606. The experiment is described as above. In kind it is cell-based, Acinetobacter baumannii. The conditions noted are these: for MIC: Acinetobacter baumannii, ATCC19606, read-out: MICs against Gram negative bacteria A. baumannii ATCC 19606.
In experiment [7] the test system is S. aureus ATCC 25923. The experiment is described as above. In kind it is cell-based, Staphylococcus aureus. The conditions noted are these: for MIC: Staphylococcus aureus, ATCC25923, read-out: MICs against Gram positive bacteria S. aureus ATCC 25923.
Experiment [8] deals with S. aureus ATCC 43300 (MRSA, FQ-S). The description is as above. The conditions noted are these: for MIC: Staphylococcus aureus, read-out: MICs against Gram positive bacteria S. aureus ATCC 43300 (MRSA, FQ-S). In kind it is cell-based, Staphylococcus aureus.
Experiment [9] has as its system S. aureus BAA-1556 (USA300-Type) (MRSA, FQ-R). The description is as above. In kind it is cell-based, Staphylococcus aureus. The settings on record: for MIC: Staphylococcus aureus, read-out: MICs against Gram positive bacteria S. aureus BAA-1556 (USA300-Type) (MRSA, FQ-R).
Experiment [10] deals with K. pneumoniae BAA-2146 (NDM-1, FQ-R). The experiment can be described thus: MIC on K. pneumoniae (Example 5). In kind it is cell-based, Klebsiella pneumoniae. The settings on record: quinolone-resistant strain. How it is done:
as §1

For the compound “8-(4-amino-3-ethyl-5-methyl- phenyl)-1-cyclopropyl-9- methyl-4-oxo-quinolizine-3- carboxylic acid [Compound 16]”, the “MIC90 B. thailandensis” value in [1] is <0.048 µg/mL.

Consider `Cc1c(-c2cc(F)c(N)cc2F)ccn2c(=O)c(C(=O)[O-])cc(C3CC3)c12.[K+]` [Compound 2K salt, potassium 8-(4-amino-2,5-difluoro-phenyl)-1-cyclopropyl-9-methyl-4-oxo-4H-quinolizine-3-carboxylate], for which the MIC in experiment [2] (Klebsiella pneumoniae, ATCC33495, read-out: MICs K. pneumoniae ATCC 33495) is 0.25 µg/mL.

Turning to `Cc1c(-c2ccc(CN)cc2)c(F)cn2c(=O)c(C(=O)[O-])cc(C3CC3)c12.[K+]` [Compound 6K salt], the “MICs against Gram negative bacteria B. thailandensis E264” value in [3] was found to be 4 µg/mL. Also, the “MICs against Gram negative bacteria E. coli ATCC 25922” value in experiment [4] is 0.064 to 0.125 µg/mL. In experiment [5], the “MICs against Gram negative bacteria P. aeruginosa ATCC 27853” value is 4 to 8 µg/mL. Also, the “MICs against Gram negative bacteria A. baumannii ATCC 19606” value in experiment [6] stood at 1 µg/mL. The “MICs against Gram positive bacteria S. aureus ATCC 25923” value in experiment [7] turned out to be 0.125 µg/mL. Also, the “MICs against Gram positive bacteria S. aureus ATCC 43300 (MRSA, FQ-S)” value in [8] (MRSA, FQ-S) is 0.064 µg/mL. In experiment [9] (MRSA, FQ-R), the “MICs against Gram positive bacteria S. aureus BAA-1556 (USA300-Type) (MRSA, FQ-R)” value was determined as 1 µg/mL.

Regarding `Cc1c(-c2ccc(N)nc2)ccn2c(=O)c(C(=O)[O-])cc(C3CC3)c12.[K+]` [Compound 33K salt, potassium 8-(6-amino-pyridin-3-yl)-1-cyclopropyl-9-methyl-4-oxo-4H-quinolizine-3-carboxylate], the “MICs K. pneumoniae ATCC 33495” value in experiment [2] is 0.064 µg/mL. The “MICs K. pneumoniae BAA-2146 (NDM-1, FQ-R)” value in [10] was >8 µg/mL.

As to `Cc1c(-c2ccc3[nH]ncc3c2)ccn2c(=O)c(C(=O)[O-])cc(C3CC3)c12.[K+]` [Compound 35K salt, potassium 8-(1H-indazol-5-yl)-1-cyclopropyl-9-methyl-4-oxo-4H-quinolizine-3-carboxylate], in [2], the “MICs K. pneumoniae ATCC 33495” value was 0.125 µg/mL. For the same compound, in experiment [10], the “MICs K. pneumoniae BAA-2146 (NDM-1, FQ-R)” value is >8 µg/mL.

For the compound `Cc1c(-c2cccc(O)c2)ccn2c(=O)c(C(=O)[O-])cc(C3CC3)c12.[K+]` [Compound 56K salt, potassium 1-cyclopropyl-8-(3-hydroxyphenyl)-9-methyl-4-oxo-4H-quinolizine-3-carboxylate], the MIC in experiment [6] and in [9] was 0.125 µg/mL each time.

`Cc1c(-c2ccc(O)c(F)c2)ccn2c(=O)c(C(=O)[O-])cc(C3CC3)c12.[K+]` [Compound 70K salt, potassium 8-(3-fluoro-4-hydroxyphenyl)-1-cyclopropyl-9-methyl-4-oxo-4H-quinolizine-3-carboxylate]: the MIC is 0.125 µg/mL in experiment [6], 50 µg/mL in experiment [7] and 50 µg/mL in experiment [8].

Turning to `Cc1c(-c2ccc3[nH]nc(C4CC4)c3c2)ccn2c(=O)c(C(=O)[O-])cc(C3CC3)c12.[K+]` [Compound 71K salt, potassium 8-(3-cyclopropyl-1H-indazol-5-yl)-1-cyclopropyl-9-methyl-4-oxo-4H-quinolizine-3-carboxylate], the MIC worked out at 0.125 µg/mL in experiment [4] (Escherichia coli, ATCC25922, read-out: MICs against Gram negative bacteria E. coli ATCC 25922); 50 µg/mL in experiment [7]; 50 µg/mL in [8]; 0.125 µg/mL in [9].

As to `Cc1c(-c2ccc3sc(N)nc3c2)ccn2c(=O)c(C(=O)[O-])cc(C3CC3)c12.[K+]` [Compound 73K salt, potassium 8-(2-aminobenzo[d]thiazol-5-yl)-1-cyclopropyl-9-methyl-4-oxo-4H-quinolizine-3-carboxylate], the MIC in [6] is 0.125 µg/mL; in experiment [7], 50 µg/mL; in experiment [8] it was 50 µg/mL.

Turning to `CNc1ccc(-c2ccn3c(=O)c(C(=O)[O-])cc(C4CC4)c3c2C)cn1.[K+]` [Compound 78K salt, potassium 8-(6-(methylamino)pyridin-3-yl)-1-cyclopropyl-9-methyl-4-oxo-4H-quinolizine-3-carboxylate], the MIC in [6] and in experiment [9] was 0.125 µg/mL throughout.

With `Cc1cc(-c2ccn3c(=O)c(C(=O)[O-])cc(C4CC4)c3c2C)cnc1N.[K+]` [Compound 79K salt, potassium 8-(6-amino-5-methylpyridin-3-yl)-1-cyclopropyl-9-methyl-4-oxo-4H-quinolizine-3-carboxylate], the values for the MIC in experiment [7], in experiment [8] and in experiment [9] were 50 µg/mL, 50 µg/mL and 0.125 µg/mL, respectively.

For the compound `Cc1n[nH]c2ccc(-c3ccn4c(=O)c(C(=O)[O-])cc(C5CC5)c4c3C)cc12.[K+]` [Compound 80K salt, potassium 8-(3-methyl-1H-indazol-5-yl)-1-cyclopropyl-9-methyl-4-oxo-4H-quinolizine-3-carboxylate], the values for the MIC in experiment [7], in experiment [8] and in [9] were 50 µg/mL, 50 µg/mL and 0.125 µg/mL, respectively.

Consider `Cc1c(-c2ccc3c(cnn3C)c2)ccn2c(=O)c(C(=O)[O-])cc(C3CC3)c12.[K+]` [Compound 81K salt, potassium 8-(1-methyl-1H-indazol-5-yl)-1-cyclopropyl-9-methyl-4-oxo-4H-quinolizine-3-carboxylate], for which the MIC worked out at 0.125 µg/mL in experiment [6], 50 µg/mL in [7] and 50 µg/mL in experiment [8].

As for `Cc1c(-c2ccc3cn[nH]c3c2)ccn2c(=O)c(C(=O)[O-])cc(C3CC3)c12.[K+]` [Compound 83K salt, potassium 8-(1H-indazol-6-yl)-1-cyclopropyl-9-methyl-4-oxo-4H-quinolizine-3-carboxylate], the MIC in experiment [3] (Burkholderia thailandensis, E264, read-out: MICs against Gram negative bacteria B. thailandensis E264) came out at 0.125 µg/mL; in [7], 50 µg/mL; in [8], 50 µg/mL.
